Where no end group is shown, it is not given here.
How the values were obtained:
p120catenin = test: Far-western assay with GST-PAP2b-cyto fusion protein; assay type: binding, human; details: 2 μg/ml fusion protein
Description: FIGS. 17A-H show interaction of PAP2b/VCIP with p120 catenin in endothelial cells. FIGS. 17A-B: Clarified cell lysates were prepared from endothelial cells infected with indicated PAP2b retroviral constructs A-E as shown in FIG. 14 and subjected to immunoprecipitation with: anti-HA (lanes 1, 2, 4, 5 and 6) or anti-p120 catenin (lane 3) and analyzed by immunoblotting with the indicated antibodies. FIGS. 17C-H: Far western analysis. Endothelial cells were solubilized in RIPA buffer, and immunoprecipitated using indicated antibodies (5 μg/1.5 mg protein). The membrane shown in FIG. 17C was incubated with 2 μg/ml of Gst-PAP2b-cyto fusion protein for 1 hour, washed with 1×TBS+tween (0.1%) and analyzed by immunoblotting with anti-Gst monoclonal antibodies (2 μg/ml). Individual lanes from the blot was excised and probed with: anti-VE-cadherin (FIG. 17D), anti-p120ctn (FIG. 17E), anti-β-catenin (FIG. 17F), anti-γ-catenin (FIG. 17G), and β1-integrin (FIG. 17H) monoclonal antibodies. […]
To further substantiate that the C-terminal cytoplasmic domain of PAP2b was indeed the region involved in the interaction, far-western assay (Wary et al., 1996) was performed using recombinant affinity purified GST-PAP2b-cyto fusion protein as follows. […] After rinsing with TBS, pH 7.5, the membrane was incubated with anti-Gst mouse monoclonal antibodies and detected as previously described (Schor et al., 1996). […]

WT and MT HEK293 cells = test: Cell aggregation assay, mixed dye-labelled WT and MT cells; assay type: cell-based; details: WT mixed with MT cells; 12 h
Description: FIGS. 9A-F show VCIP mediates heterophilic cell-cell interactions. Magnification, 200×. Bar, […]. *, P<0.05. The images of cell aggregates appear out of focus. FIG. 9A: Representative photomicrograph of a mixture of WT and MT cells labeled with red (Dil) and green (DiO) fluorescent dyes at 0 h. FIG. 9B: Small and large cell-aggregates were visible after 6 h; green arrowheads indicate the most productive cell aggregation (yellow). FIG. 9C: Representative large cell aggregates are shown after 12 h. FIG. 9D: Cells co-incubated with the GRGDSP peptide for 12 h. FIG. 9E: Cells co-incubated with anti-VCIP-RGD antibody (25 μg/ml) after 12 h. All experiments were performed at least three times in triplicates.
To monitor aggregation, cells were labeled with optimal non-toxic concentrations of fluorescent dyes. This assay was performed essentially according to the protocol described by Niessen and Gumbiner (2002), with minor modifications. […] The inhibitory effects of EDTA, peptides and antibodies on cell aggregation were determined at the end of 12 h. […] Experiments were performed at least three times with each time point analyzed in triplicate. Only productive cell aggregates (yellow) were counted. […] Numbers were expressed as the percentage of total aggregates counted. […]

[1] = test system: SW480 cells on monolayer HUVECs; test: Adhesion of SW480 cells to HUVEC monolayer; assay type: cell-based, human; details: pre-incubation; GRGDSP 10, 20 μM; antibody 20, 40 μg/ml; 1 hr
Description: FIGS. 7A-O show the effects of VCIP on adhesion of cadherin-deficient SW480 cells to HUVECs monolayer. SW480-C, SW480-WT, and SW480-MT cells were non-enzymatically detached from dishes, washed, passed through a cell strainer, counted, and labeled with a fluorescent dye (red) prior to experiments. HUVECs were seeded onto 12-well dishes in complete media and allowed to form a 100% confluent monolayer on the day of assay. Monolayer HUVECs were washed once each with PBS and HCMF, and then preincubated in HCMF supplemented with Ca^2+/Mg^2+ for 10 min at 37° C. SW480 cells (0.25×10^6) were finely resuspendend in 500 μl of HCMF buffer supplemented with Ca^2+/Mg^2+, layered onto the monolayer, and allowed to attach at 37° C. for 1 hr. Unattached cells were removed by washing with PBS and adherent cells were fixed with 4% paraformaldehyde. The number of cells adhered to the monolayer were determined using a phase-contrast microscope. Experiments were performed at least three times in triplicates, with three independent clones. […] In each experiment, the relative percentage of cell adhesion was calculated and presented as mean±SD. […] Data are expressed as mean±S.D. (n≧7), *P<0.05. […]

GST-PAP2b-c-cyto: recombinant affinity purified GST fusion of the C-terminal cytoplasmic domain of PAP2b (LSLPAPAIRKEILSPVDIIDRNNHHNMM; also: GST fusion)
interaction with p120catenin (p120catenin): sufficient to interact with p120catenin
reaction with VE cadherin, β- and γ-catenin, or β1-integrin polypeptides (p120catenin): did not react

GRADSP [control peptide]
inhibition of cell aggregation (WT and MT HEK293 cells): did not

GRGDSP (CHAIN a peptide containing RGD sequence)
inhibition of cell aggregation (WT and MT HEK293 cells): dose-dependently inhibited cell aggregation
blocking of adhesion of pLNCX2-VCIP-RGD SW480 cells to monolayer HUVECs [1]: blocked

— patent publication US20050002904A1, “Uses of vascular endothelial growth factor and type I collagen inducible protein (VCIP)” (priority 2003, published 2005)
